From patent EP0183129A1, “Quinolonecarboxylic acid derivatives” (KYORIN PHARMACEUTICAL CO., LTD., priority 1984, dated 1986)
In brackets after ≈: the same amount, converted by molar mass. Where a name gives a salt, the structure may show the parent alone.

Legend:
[1] = tested on: Acinetobacter anitratus IID 876; assay: In vitro antibacterial activity, MIC (standard strain); format: cell-based; details: Acinetobacter calcoaceticus, IID876, Acinetobacter anitratus IID 876; 10^6 cells/ml; standard strain; read-out: MIC
[2] = tested on: S. agalactiae 4342; assay: In vitro antibacterial activity, MIC (clinical isolates); format: cell-based; details: Streptococcus agalactiae; S. agalactiae 4342; 10^6 cells/ml; clinical isolate; read-out: MIC
[3] = tested on: S. pneumoniae IID 552; assay: In vitro antibacterial activity, MIC (standard strain); format: cell-based; details: Streptococcus pneumoniae, IID552; S. pneumoniae IID 552; 10^6 cells/ml; standard strain; read-out: MIC
[4] = tested on: K. pneumoniae 1-220S; assay: as above; format: cell-based; details: Klebsiella pneumoniae, 1220S; K. pneumoniae 1-220S; 10^6 cells/ml; standard strain; read-out: MIC
[5] = tested on: S. faecalis 402; assay: In vitro antibacterial activity, MIC (clinical isolates); format: cell-based; details: Enterococcus faecalis; S. faecalis 402; 10^6 cells/ml; clinical isolate; read-out: MIC
[6] = tested on: Serratia marcescens IID 618; assay: In vitro antibacterial activity, MIC (standard strain); format: cell-based; details: Serratia marcescens, IID618, Serratia marcescens IID 618; 10^6 cells/ml; standard strain; read-out: MIC
[7] = tested on: P. mirabilis IID 994; assay: as above; format: cell-based; details: Proteus mirabilis, IID994; P. mirabilis IID 994; 10^6 cells/ml; standard strain; read-out: MIC
[8] = tested on: S. pyogenes IID 692; assay: as above; format: cell-based; details: Streptococcus pyogenes, IID692; S. pyogenes IID 692; 10^6 cells/ml; standard strain; read-out: MIC
[9] = tested on: Pseudomonas aeruginosa V-1; assay: as above; format: cell-based; details: V1; Pseudomonas aeruginosa V-1; 10^6 cells/ml; standard strain; read-out: MIC
[10] = tested on: C. ramosum; assay: as above; format: cell-based; details: Thomasclavelia ramosa; C. ramosum; 10^6 cells/ml; standard strain; read-out: MIC
[11] = tested on: S. agalactiae 4049; assay: In vitro antibacterial activity, MIC (clinical isolates); format: cell-based; details: Streptococcus agalactiae; S. agalactiae 4049; 10^6 cells/ml; clinical isolate; read-out: MIC
[12] = tested on: S. faecalis 401; assay: as above; format: cell-based; details: Enterococcus faecalis; S. faecalis 401; 10^6 cells/ml; clinical isolate; read-out: MIC
[13] = tested on: S. aureus Smith; assay: In vitro antibacterial activity, MIC (standard strain); format: cell-based, Staphylococcus aureus; details: Staphylococcus aureus; S. aureus Smith; 10^6 cells/ml; standard strain; read-out: MIC
[14] = tested on: B. fragilis 0558; assay: as above; format: cell-based, Bacteroides fragilis; details: Bacteroides fragilis, 0558, B. fragilis 0558; 10^6 cells/ml; standard strain; read-out: MIC
[15] = tested on: Streptococcus pyogenes S-8; assay: as above; format: cell-based; details: S8; Streptococcus pyogenes S-8; 10^6 cells/ml; standard strain; read-out: MIC
[16] = tested on: Proteus vulgaris IFO 3167; assay: as above; format: cell-based; details: IFO3167; Proteus vulgaris IFO 3167; 10^6 cells/ml; standard strain; read-out: MIC
[17] = tested on: Klebsiella pneumoniae KY(GN)6445; assay: as above; format: cell-based; details: Klebsiella pneumoniae KY(GN)6445; 10^6 cells/ml; standard strain; read-out: MIC
[18] = tested on: S. pneumoniae 15; assay: In vitro antibacterial activity, MIC (clinical isolates); format: cell-based; details: Streptococcus pneumoniae; S. pneumoniae 15; 10^6 cells/ml; clinical isolate; read-out: MIC
[19] = tested on: S. agalactiae 4394; assay: as above; format: cell-based; details: Streptococcus agalactiae; S. agalactiae 4394; 10^6 cells/ml; clinical isolate; read-out: MIC
[20] = tested on: Salmonella entritidis IID 604; assay: In vitro antibacterial activity, MIC (standard strain); format: cell-based; details: IID604; Salmonella entritidis IID 604; 10^6 cells/ml; standard strain; read-out: MIC
[21] = tested on: S. pyogenes 3107; assay: In vitro antibacterial activity, MIC (clinical isolates); format: cell-based; details: Streptococcus pyogenes; S. pyogenes 3107; 10^6 cells/ml; clinical isolate; read-out: MIC
[22] = tested on: S. faecalis 49; assay: as above; format: cell-based; details: Enterococcus faecalis; S. faecalis 49; 10^6 cells/ml; clinical isolate; read-out: MIC
[23] = tested on: S. pyogenes 4340; assay: as above; format: cell-based; details: Streptococcus pyogenes; S. pyogenes 4340; 10^6 cells/ml; clinical isolate; read-out: MIC
[24] = tested on: S. agalactiae 4368; assay: as above; format: cell-based; details: Streptococcus agalactiae; S. agalactiae 4368; 10^6 cells/ml; clinical isolate; read-out: MIC
[25] = tested on: S. agalactiae 4468; assay: as above; format: cell-based; details: Streptococcus agalactiae; S. agalactiae 4468; 10^6 cells/ml; clinical isolate; read-out: MIC
[26] = tested on: S. pyogenes 3102; assay: as above; format: cell-based; details: Streptococcus pyogenes; S. pyogenes 3102; 10^6 cells/ml; clinical isolate; read-out: MIC
[27] = tested on: Yersinia enterocolitica IID 981; assay: In vitro antibacterial activity, MIC (standard strain); format: cell-based; details: IID981; Yersinia enterocolitica IID 981; 10^6 cells/ml; standard strain; read-out: MIC
[28] = tested on: S. faecalis 214; assay: In vitro antibacterial activity, MIC (clinical isolates); format: cell-based; details: Enterococcus faecalis; S. faecalis 214; 10^6 cells/ml; clinical isolate; read-out: MIC
[29] = tested on: S. marcescens GN 7577; assay: In vitro antibacterial activity, MIC (standard strain); format: cell-based; details: Serratia marcescens, GN7577; S. marcescens GN 7577; 10^6 cells/ml; standard strain; read-out: MIC
[30] = tested on: Escherichia coli NIHJ JC-2; assay: as above; format: cell-based; details: Escherichia coli, NIHJJC2, Escherichia coli NIHJ JC-2; 10^6 cells/ml; standard strain; read-out: MIC

Compound	MIC [1]	MIC [2]	MIC [3]	MIC [4]	MIC [5]	MIC [6]	MIC [7]	MIC [8]	MIC [9]	MIC [10]	MIC [11]	MIC [12]	MIC [13]	MIC [14]	MIC [15]	MIC [16]	MIC [17]	MIC [18]	MIC [19]	MIC [20]	other results
CNCC1CCN(c2c(F)cc3c(=O)c(C(=O)O)cn(C4CC4)c3c2Cl)C1 (stereo not drawn) [Example 12, 8-Chloro-l-cyclopropyl-6-fluoro-1,4-dihydro-7-(3-methylaminomethyl-1-pyrrolidinyl)-4-oxo-3-quinolinecarboxylic acid hydrochloride]	0.05 µg/mL	0.05 µg/mL	0.05 µg/mL	0.05 µg/mL	0.1 µg/mL	0.1 µg/mL	0.025 µg/mL	0.05 µg/mL	0.39 µg/mL	0.39 µg/mL	0.05 µg/mL	0.1 µg/mL	0.025 µg/mL	0.1 µg/mL	0.05 µg/mL	0.025 µg/mL	0.05 µg/mL	0.05 µg/mL	0.1 µg/mL	0.05 µg/mL	MIC [21]: 0.05 µg/mL; MIC [22]: 0.05 µg/mL; MIC [23]: 0.05 µg/mL; MIC [24]: 0.05 µg/mL; MIC [25]: 0.05 µg/mL; MIC [26]: 0.05 µg/mL; MIC [27]: 0.05 µg/mL; MIC [28]: 0.1 µg/mL; MIC [29]: 0.78 µg/mL; MIC [30]: 0.025 µg/mL
CCNCC1CCN(c2c(F)cc3c(=O)c(C(=O)O)cn(C4CC4)c3c2Cl)C1 (stereo not drawn) [Example 13, 8-Chloro-l-cyclorpropyl-6-fluoro-1,4-dihydro-7-(3-ethylaminomethyl-l-pyrrolidinyl)-4-oxo-3-quinolinecarboxylic acid]	0.05 µg/mL (≈ 0.123 µM)	0.05 µg/mL (≈ 0.123 µM)	0.05 µg/mL (≈ 0.123 µM)	0.1 µg/mL (≈ 0.245 µM)	0.1 µg/mL (≈ 0.245 µM)	0.1 µg/mL (≈ 0.245 µM)	0.05 µg/mL (≈ 0.123 µM)	0.05 µg/mL (≈ 0.123 µM)	0.78 µg/mL (≈ 1.91 µM)	0.2 µg/mL (≈ 0.49 µM)	0.05 µg/mL (≈ 0.123 µM)	0.1 µg/mL (≈ 0.245 µM)	0.025 µg/mL (≈ 0.0613 µM)	0.1 µg/mL (≈ 0.245 µM)	0.05 µg/mL (≈ 0.123 µM)	0.025 µg/mL (≈ 0.0613 µM)	0.05 µg/mL (≈ 0.123 µM)	0.025 µg/mL (≈ 0.0613 µM)	0.1 µg/mL (≈ 0.245 µM)	0.05 µg/mL (≈ 0.123 µM)	MIC [21]: 0.05 µg/mL (≈ 0.123 µM); MIC [22]: 0.05 µg/mL (≈ 0.123 µM); MIC [23]: 0.05 µg/mL (≈ 0.123 µM); MIC [24]: 0.025 µg/mL (≈ 0.0613 µM); MIC [25]: 0.05 µg/mL (≈ 0.123 µM); MIC [26]: 0.05 µg/mL (≈ 0.123 µM); MIC [27]: 0.1 µg/mL (≈ 0.245 µM); MIC [28]: 0.1 µg/mL (≈ 0.245 µM); MIC [29]: 0.78 µg/mL (≈ 1.91 µM); MIC [30]: 0.0125 µg/mL (≈ 0.0306 µM)
